Laboratory results from ChEMBL document CHEMBL4507277.

How the values were obtained:
[1] = target: Activin receptor type-1 (Homo sapiens) (UniProt Q04771); settings: Compound concentration 1000.0 nM
[2] = target: Calcium/calmodulin-dependent protein kinase type 1 (Homo sapiens) (UniProt Q14012); settings: Compound concentration 1000.0 nM
[3] = target: Calcium/calmodulin-dependent protein kinase type II subunit gamma (Homo sapiens) (UniProt Q13555); settings: Compound concentration 1000.0 nM
[4] = target: Cyclin-dependent kinase 19 (Homo sapiens) (UniProt Q9BWU1); settings: Compound concentration 1000.0 nM
Sequence of Cyclin-dependent kinase 19 (Homo sapiens) (Q9BWU1 whole entry): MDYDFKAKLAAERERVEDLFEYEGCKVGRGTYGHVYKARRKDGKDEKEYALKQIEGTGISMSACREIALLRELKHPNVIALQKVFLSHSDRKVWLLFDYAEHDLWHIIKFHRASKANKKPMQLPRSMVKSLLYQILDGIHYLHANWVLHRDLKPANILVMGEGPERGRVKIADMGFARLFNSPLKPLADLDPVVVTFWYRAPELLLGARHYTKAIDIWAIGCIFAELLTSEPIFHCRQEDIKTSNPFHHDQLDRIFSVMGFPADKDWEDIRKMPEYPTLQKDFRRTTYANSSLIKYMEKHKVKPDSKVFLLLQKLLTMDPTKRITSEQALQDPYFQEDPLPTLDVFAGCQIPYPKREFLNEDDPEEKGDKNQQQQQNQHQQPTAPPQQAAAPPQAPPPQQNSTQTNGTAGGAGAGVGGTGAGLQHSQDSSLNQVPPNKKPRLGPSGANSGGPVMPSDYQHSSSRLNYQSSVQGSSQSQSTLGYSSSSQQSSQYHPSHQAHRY

[5] = target: Cyclin-dependent kinase 4 (Homo sapiens) (UniProt P11802); settings: Compound concentration 1000.0 nM
[6] = target: Cyclin-dependent kinase 8 (Homo sapiens) (UniProt P49336); settings: Compound concentration 1000.0 nM
[7] = target: Death-associated protein kinase 2 (Homo sapiens) (UniProt Q9UIK4); settings: Compound concentration 1000.0 nM
[8] = target: Serine/threonine-protein kinase DCLK1 (Homo sapiens) (UniProt O15075); settings: Compound concentration 1000.0 nM
[9] = target: Myotonin-protein kinase (Homo sapiens) (UniProt Q09013); settings: Compound concentration 1000.0 nM
[10] = tested on: Epidermal growth factor receptor (Homo sapiens), P00533 [L858R]; settings: Compound concentration 1000.0 nM
[11] = target: Mitogen-activated protein kinase 6 (Homo sapiens) (UniProt Q16659); settings: Compound concentration 1000.0 nM
[12] = tested on: eIF-2-alpha kinase GCN2 (Homo sapiens), Q9P2K8 [S808G]; settings: Compound concentration 1000.0 nM
[13] = target: Homeodomain-interacting protein kinase 3 (Homo sapiens) (UniProt Q9H422); settings: Compound concentration 1000.0 nM
[14] = target: Interleukin-1 receptor-associated kinase 4 (Homo sapiens) (UniProt Q9NWZ3); settings: Compound concentration 1000.0 nM
[15] = target: Serine/threonine-protein kinase LATS1 (Homo sapiens) (UniProt O95835); settings: Compound concentration 1000.0 nM
[16] = target: Misshapen-like kinase 1 (Homo sapiens) (UniProt Q8N4C8); settings: Compound concentration 1000.0 nM
[17] = target: Mitogen-activated protein kinase kinase kinase 9 (Homo sapiens) (UniProt P80192); settings: Compound concentration 1000.0 nM
[18] = target: Serine/threonine-protein kinase 26 (Homo sapiens) (UniProt Q9P289); settings: Compound concentration 1000.0 nM
[19] = target: Myosin light chain kinase family member 4 (Homo sapiens) (UniProt Q86YV6); settings: Compound concentration 1000.0 nM
[20] = target: Serine/threonine-protein kinase 38 (Homo sapiens) (UniProt Q15208); settings: Compound concentration 1000.0 nM
[21] = target: Serine/threonine-protein kinase Nek9 (Homo sapiens) (UniProt Q8TD19); settings: Compound concentration 1000.0 nM
Sequence of Serine/threonine-protein kinase Nek9 (Homo sapiens) (Q8TD19 whole entry): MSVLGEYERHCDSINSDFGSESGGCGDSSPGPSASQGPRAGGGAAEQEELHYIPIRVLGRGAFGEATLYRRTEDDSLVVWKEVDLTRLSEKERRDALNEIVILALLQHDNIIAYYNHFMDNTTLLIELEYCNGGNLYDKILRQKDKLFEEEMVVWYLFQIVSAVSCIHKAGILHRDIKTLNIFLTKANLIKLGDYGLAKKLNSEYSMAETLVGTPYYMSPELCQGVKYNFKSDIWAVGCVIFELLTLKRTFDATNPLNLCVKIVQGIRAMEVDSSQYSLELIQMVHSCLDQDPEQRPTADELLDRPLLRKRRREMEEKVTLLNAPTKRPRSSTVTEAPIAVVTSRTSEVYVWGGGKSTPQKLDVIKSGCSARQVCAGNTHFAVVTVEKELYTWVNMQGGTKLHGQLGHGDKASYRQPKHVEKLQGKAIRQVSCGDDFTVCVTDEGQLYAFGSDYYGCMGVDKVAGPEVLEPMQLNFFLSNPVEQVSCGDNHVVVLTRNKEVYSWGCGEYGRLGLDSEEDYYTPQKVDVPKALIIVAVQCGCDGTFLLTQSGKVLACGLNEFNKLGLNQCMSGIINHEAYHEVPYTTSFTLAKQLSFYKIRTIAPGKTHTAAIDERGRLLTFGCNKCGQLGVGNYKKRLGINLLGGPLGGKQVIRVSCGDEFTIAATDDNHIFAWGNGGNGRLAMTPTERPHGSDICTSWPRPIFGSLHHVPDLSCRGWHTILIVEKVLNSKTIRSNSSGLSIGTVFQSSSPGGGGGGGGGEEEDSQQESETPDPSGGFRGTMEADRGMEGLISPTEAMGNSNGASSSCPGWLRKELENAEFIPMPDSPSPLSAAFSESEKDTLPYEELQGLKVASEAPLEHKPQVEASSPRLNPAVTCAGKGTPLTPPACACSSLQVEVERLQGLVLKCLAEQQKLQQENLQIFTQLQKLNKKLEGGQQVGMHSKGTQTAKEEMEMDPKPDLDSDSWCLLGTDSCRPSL

[22] = target: Cyclin-dependent kinase 16 (Homo sapiens) (UniProt Q00536); settings: Compound concentration 1000.0 nM
[23] = target: Cyclin-dependent kinase 17 (Homo sapiens) (UniProt Q00537); settings: Compound concentration 1000.0 nM
[24] = target: Phosphorylase b kinase regulatory subunit alpha, liver isoform (Homo sapiens) (UniProt P46019); settings: Compound concentration 1000.0 nM
[25] = target: 1-phosphatidylinositol 3-phosphate 5-kinase (Homo sapiens) (UniProt Q9Y2I7); settings: Compound concentration 1000.0 nM
[26] = target: Serine/threonine-protein kinase N2 (Homo sapiens) (UniProt Q16513); settings: Compound concentration 1000.0 nM
[27] = target: Serine/threonine-protein kinase PLK1 (Homo sapiens) (UniProt P53350); settings: Compound concentration 1000.0 nM
[28] = target: Serine/threonine-protein kinase PRP4 homolog (Homo sapiens) (UniProt Q13523); settings: Compound concentration 1000.0 nM
Sequence of Serine/threonine-protein kinase PRP4 homolog (Homo sapiens) (Q13523 whole entry): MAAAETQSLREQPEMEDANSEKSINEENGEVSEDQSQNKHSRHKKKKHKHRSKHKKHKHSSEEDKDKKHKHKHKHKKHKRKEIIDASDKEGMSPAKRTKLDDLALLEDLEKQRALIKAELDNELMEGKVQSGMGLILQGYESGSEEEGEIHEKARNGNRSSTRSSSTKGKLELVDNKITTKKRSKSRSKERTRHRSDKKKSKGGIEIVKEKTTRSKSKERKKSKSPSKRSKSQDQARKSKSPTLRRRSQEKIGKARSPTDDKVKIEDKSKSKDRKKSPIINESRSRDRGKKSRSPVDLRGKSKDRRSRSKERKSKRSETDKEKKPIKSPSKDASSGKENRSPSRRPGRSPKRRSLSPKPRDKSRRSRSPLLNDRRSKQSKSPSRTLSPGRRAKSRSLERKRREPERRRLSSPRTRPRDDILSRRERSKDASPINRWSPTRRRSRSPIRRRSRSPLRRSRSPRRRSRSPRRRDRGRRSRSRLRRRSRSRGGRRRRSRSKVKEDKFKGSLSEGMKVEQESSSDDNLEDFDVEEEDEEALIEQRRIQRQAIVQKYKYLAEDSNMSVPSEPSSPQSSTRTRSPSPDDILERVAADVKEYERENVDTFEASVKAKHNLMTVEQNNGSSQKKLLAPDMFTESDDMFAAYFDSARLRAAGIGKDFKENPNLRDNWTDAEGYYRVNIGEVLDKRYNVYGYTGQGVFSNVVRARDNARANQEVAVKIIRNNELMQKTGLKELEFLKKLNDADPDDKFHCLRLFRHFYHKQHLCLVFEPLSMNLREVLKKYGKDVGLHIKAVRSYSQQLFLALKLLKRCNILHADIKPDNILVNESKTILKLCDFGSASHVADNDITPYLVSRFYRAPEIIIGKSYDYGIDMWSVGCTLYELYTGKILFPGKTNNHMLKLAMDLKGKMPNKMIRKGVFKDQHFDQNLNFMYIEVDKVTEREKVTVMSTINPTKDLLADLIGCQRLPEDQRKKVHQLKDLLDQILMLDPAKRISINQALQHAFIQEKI

[29] = target: Ribosomal protein S6 kinase alpha-5 (Homo sapiens) (UniProt O75582); settings: Compound concentration 1000.0 nM
Sequence of Ribosomal protein S6 kinase alpha-5 (Homo sapiens) (O75582 whole entry, looked up): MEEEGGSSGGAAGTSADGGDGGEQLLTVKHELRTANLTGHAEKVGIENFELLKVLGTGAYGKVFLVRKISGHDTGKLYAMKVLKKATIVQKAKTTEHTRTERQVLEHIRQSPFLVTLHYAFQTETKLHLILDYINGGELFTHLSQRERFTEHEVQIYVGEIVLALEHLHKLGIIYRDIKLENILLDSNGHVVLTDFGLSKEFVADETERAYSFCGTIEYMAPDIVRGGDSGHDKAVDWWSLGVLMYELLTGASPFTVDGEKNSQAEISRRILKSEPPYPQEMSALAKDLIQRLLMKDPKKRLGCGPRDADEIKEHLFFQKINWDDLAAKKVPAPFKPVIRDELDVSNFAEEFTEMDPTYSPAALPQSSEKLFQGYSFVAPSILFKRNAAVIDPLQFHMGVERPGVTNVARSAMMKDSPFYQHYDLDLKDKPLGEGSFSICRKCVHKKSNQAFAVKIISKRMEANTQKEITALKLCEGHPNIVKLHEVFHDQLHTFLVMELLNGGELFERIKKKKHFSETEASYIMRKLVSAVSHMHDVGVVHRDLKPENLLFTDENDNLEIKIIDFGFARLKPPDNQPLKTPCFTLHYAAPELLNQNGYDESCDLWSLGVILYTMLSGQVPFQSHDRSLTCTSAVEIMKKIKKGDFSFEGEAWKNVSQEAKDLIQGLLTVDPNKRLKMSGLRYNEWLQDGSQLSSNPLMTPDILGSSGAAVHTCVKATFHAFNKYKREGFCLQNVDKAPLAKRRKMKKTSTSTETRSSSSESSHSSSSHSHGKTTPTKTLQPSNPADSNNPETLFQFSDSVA

[30] = target: Ribosomal protein S6 kinase alpha-5 (Homo sapiens) (UniProt O75582); settings: Compound concentration 1000.0 nM; remark: listed apart in the source
[31] = target: Ribosomal protein S6 kinase alpha-2 (Homo sapiens) (UniProt Q15349); settings: Compound concentration 1000.0 nM
[32] = target: Serine/threonine-protein kinase SIK1 (Homo sapiens) (UniProt P57059); settings: Compound concentration 1000.0 nM
[33] = target: SRSF protein kinase 2 (Homo sapiens) (UniProt P78362); settings: Compound concentration 1000.0 nM
[34] = target: Serine/threonine-protein kinase 35 (Homo sapiens) (UniProt Q8TDR2); settings: Compound concentration 1000.0 nM
Sequence of Serine/threonine-protein kinase 35 (Homo sapiens) (Q8TDR2 whole entry): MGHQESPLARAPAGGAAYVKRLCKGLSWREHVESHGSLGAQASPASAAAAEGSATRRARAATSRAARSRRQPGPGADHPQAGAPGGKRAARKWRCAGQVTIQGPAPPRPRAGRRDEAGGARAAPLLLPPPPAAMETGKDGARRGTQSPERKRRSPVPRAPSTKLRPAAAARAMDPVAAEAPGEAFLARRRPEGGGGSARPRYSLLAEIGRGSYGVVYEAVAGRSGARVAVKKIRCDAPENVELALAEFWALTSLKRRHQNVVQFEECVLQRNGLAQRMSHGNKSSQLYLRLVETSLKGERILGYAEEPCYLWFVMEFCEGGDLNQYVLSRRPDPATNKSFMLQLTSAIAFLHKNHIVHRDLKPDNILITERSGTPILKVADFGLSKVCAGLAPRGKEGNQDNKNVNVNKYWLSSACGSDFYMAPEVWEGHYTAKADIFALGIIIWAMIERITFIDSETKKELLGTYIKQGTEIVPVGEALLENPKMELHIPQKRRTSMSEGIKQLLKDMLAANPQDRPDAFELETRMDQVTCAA

[35] = target: TGF-beta receptor type-2 (Homo sapiens) (UniProt P37173); settings: Compound concentration 1000.0 nM
[36] = target: Serine/threonine-protein kinase tousled-like 2 (Homo sapiens) (UniProt Q86UE8); settings: Compound concentration 1000.0 nM
Sequence of Serine/threonine-protein kinase tousled-like 2 (Homo sapiens) (Q86UE8 whole entry, looked up): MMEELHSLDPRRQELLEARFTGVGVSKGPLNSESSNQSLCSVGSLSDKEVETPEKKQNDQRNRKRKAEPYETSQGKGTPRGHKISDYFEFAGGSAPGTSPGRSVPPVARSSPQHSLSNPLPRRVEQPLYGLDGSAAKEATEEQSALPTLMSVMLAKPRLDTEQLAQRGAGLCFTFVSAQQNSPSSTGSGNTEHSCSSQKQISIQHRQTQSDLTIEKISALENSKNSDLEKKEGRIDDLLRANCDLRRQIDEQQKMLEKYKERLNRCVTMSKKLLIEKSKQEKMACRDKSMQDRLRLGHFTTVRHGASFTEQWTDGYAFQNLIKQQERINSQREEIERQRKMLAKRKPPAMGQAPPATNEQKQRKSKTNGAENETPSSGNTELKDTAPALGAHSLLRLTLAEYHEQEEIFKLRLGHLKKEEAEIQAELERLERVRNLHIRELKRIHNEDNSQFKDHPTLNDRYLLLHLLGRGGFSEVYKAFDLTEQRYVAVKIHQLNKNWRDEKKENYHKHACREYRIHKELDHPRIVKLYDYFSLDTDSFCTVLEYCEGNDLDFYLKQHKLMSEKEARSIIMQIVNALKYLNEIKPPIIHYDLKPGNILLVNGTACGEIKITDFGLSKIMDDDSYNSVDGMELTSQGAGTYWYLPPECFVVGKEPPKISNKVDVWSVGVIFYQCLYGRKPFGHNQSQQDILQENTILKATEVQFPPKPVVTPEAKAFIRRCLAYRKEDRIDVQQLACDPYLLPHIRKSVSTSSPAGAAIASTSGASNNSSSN

[37] = target: Serine/threonine-protein kinase TNNI3K (Homo sapiens) (UniProt Q59H18); settings: Compound concentration 1000.0 nM
[38] = target: NT-3 growth factor receptor (Homo sapiens) (UniProt Q16288); settings: Compound concentration 1000.0 nM
[39] = target: Serine/threonine-protein kinase VRK2 (Homo sapiens) (UniProt Q86Y07); settings: Compound concentration 1000.0 nM
[40] = target: Serine/threonine-protein kinase WNK1 (Homo sapiens) (UniProt Q9H4A3); settings: Compound concentration 1000.0 nM
[41] = target: Tyrosine-protein kinase Yes (Homo sapiens) (UniProt P07947); settings: Compound concentration 1000.0 nM
[42] = target: Mitogen-activated protein kinase kinase kinase 19 (Homo sapiens) (UniProt Q56UN5); settings: Compound concentration 1000.0 nM
[43] = target: Tyrosine-protein kinase ZAP-70 (Homo sapiens) (UniProt P43403); settings: Compound concentration 1000.0 nM
[44] = target: Mu-type opioid receptor (Homo sapiens) (UniProt P35372); settings: Compound concentration 10.0 uM
[45] = target: Alpha-2A adrenergic receptor (Homo sapiens) (UniProt P08913); settings: Compound concentration 10.0 uM
Sequence of Alpha-2A adrenergic receptor (Homo sapiens) (P08913 whole entry): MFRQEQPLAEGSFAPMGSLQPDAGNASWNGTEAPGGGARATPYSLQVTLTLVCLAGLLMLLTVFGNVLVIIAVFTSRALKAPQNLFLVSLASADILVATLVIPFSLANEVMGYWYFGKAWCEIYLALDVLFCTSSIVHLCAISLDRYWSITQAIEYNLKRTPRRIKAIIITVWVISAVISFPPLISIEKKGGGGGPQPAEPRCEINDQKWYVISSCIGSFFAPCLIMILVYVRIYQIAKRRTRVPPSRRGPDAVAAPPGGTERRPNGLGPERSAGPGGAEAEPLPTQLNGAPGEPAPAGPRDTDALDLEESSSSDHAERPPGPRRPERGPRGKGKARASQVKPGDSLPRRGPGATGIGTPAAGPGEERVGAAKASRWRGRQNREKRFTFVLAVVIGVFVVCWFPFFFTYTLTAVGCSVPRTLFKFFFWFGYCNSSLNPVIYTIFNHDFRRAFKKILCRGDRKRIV

[46] = target: Beta-2 adrenergic receptor (Homo sapiens) (UniProt P07550); settings: Compound concentration 10.0 uM

CCS(=O)(=O)c1cc2cc(C[C@@](O)(CC(C)(C)c3ccc(F)cc3C(N)=O)C(F)(F)F)[nH]c2cn1
inactive: residual activity [1] 100% | residual activity [2] 57% | residual activity [3] 77% | residual activity [4] 100% | residual activity [5] 100% | residual activity [6] 100% | residual activity [7] 100% | residual activity [8] 100% | residual activity [9] 85% | residual activity [10] 90% | residual activity [11] 72% | residual activity [12] 94% | residual activity [13] 65% | residual activity [14] 100% | residual activity [15] 77% | residual activity [16] 79% | residual activity [17] 96% | residual activity [18] 91% | residual activity [19] 100% | residual activity [20] 76% | residual activity [21] 83% | residual activity [22] 78% | residual activity [23] 82% | residual activity [24] 100% | residual activity [25] 69% | residual activity [26] 85% | residual activity [27] 85% | residual activity [28] 80% | residual activity [29] 100% | residual activity [30] 69% | residual activity [31] 80% | residual activity [32] 100% | residual activity [33] 70% | residual activity [34] 100% | residual activity [35] 100% | residual activity [36] 97% | residual activity [37] 100% | residual activity [38] 82% | residual activity [39] 80% | residual activity [40] 90% | residual activity [41] 100% | residual activity [42] 76% | residual activity [43] 72% | inhibition [44] 7.98% | inhibition [45] -5.76% | inhibition [46] 15.2%

CCS(=O)(=O)c1cc2cc(C[C@](O)(CC(C)(C)c3ccc(F)cc3C(N)=O)C(F)(F)F)[nH]c2cn1
inactive: residual activity [1] 100% | residual activity [2] 86% | residual activity [3] 100% | residual activity [4] 100% | residual activity [5] 97% | residual activity [6] 100% | residual activity [7] 90% | residual activity [8] 99% | residual activity [9] 99% | residual activity [10] 100% | residual activity [11] 100% | residual activity [12] 89% | residual activity [13] 100% | residual activity [14] 100% | residual activity [15] 98% | residual activity [16] 89% | residual activity [17] 98% | residual activity [18] 94% | residual activity [19] 100% | residual activity [20] 91% | residual activity [21] 99% | residual activity [22] 100% | residual activity [23] 88% | residual activity [24] 100% | residual activity [25] 97% | residual activity [26] 100% | residual activity [27] 100% | residual activity [28] 98% | residual activity [29] 94% | residual activity [30] 100% | residual activity [31] 100% | residual activity [32] 100% | residual activity [33] 82% | residual activity [34] 100% | residual activity [35] 100% | residual activity [36] 100% | residual activity [37] 80% | residual activity [38] 94% | residual activity [39] 100% | residual activity [40] 97% | residual activity [41] 100% | residual activity [42] 93% | residual activity [43] 71% | inhibition [44] 7.51% | inhibition [45] -4.94% | inhibition [46] 4.71%
